These results are taken from patent US7807679B2, “Piperazine derivatives and their use in controlling pests” (Syngenta Crop Protection, Inc., priority 2004, dated 2010).

The subject of data set [1] is Aedes aegypti (Yellow Fever Mosquito). Nature of the data set: Aedes aegypti larvae test in microtiter plates. In kind it is in vivo. As to conditions: 48 h, larvae (L2) with nutrition mixture, mortality and growth inhibition 2 days later. From the text:
10-15 Aedes larvae (L2) together with a nutrition mixture are placed in 96-well microtiter plates. Test solutions at an application rate of 2 ppm are pipetted into the wells. 2 days later, insects were checked for mortality and growth inhibition. The following compounds gave at least 80% control of Aedes aegypti • I-3, I-26, I-29, I-30, I-49, I-52, I-53, I-72, I-75, I-76, III-49, III-118, XIV-26, XV-26, XXIV-2, XXIV-46, XXIV-90, XXIV-93, XXIV-94 and XXV-68.

The subject of data set [2] is Spodoptera littoralis (Egyptian Cotton Leafworm). Nature of the data set: Spodoptera littoralis cotton leaf disc spray test. Format: in vivo. As to conditions: foliar, 72 h, 200 ppm sprayed on cotton leaf discs, 5 L1 larvae, mortality, repellent effect, feeding behaviour, growth regulation 3 days after treatment. From the text:
Spodoptera littoralis (Egyptian Cotton Leafworm)
Cotton leaf discs were placed on agar in a 24-well microtiter plate and sprayed with test solutions at an application rate of 200 ppm. After drying, the leaf discs were infested with 5 L1 larvae. The samples were checked for mortality, repellent effect, feeding behaviour, and growth regulation 3 days after treatment (DAT). The following compounds gave at least 80% control of Spodoptera littoralis: • I-3, I-26, I-29, I-30, I-49, I-52, I-53, I-75, I-417, I-532, I-578, I-785, I-854, I-877, II-49, III-49, V-49, XII-49, XIV-26, XV-26, XXIV-2, XXIV-46, XXIV-90, XXIV-93, XXIV-94, XXV-26 and XXV-49.

The subject of data set [3] is Heliothis virescens (Tobacco Budworm). As to the kind of experiment: Heliothis virescens egg test on artificial diet. As to conditions: 96 h, 200 ppm by pipetting, eggs (0-24 h old) on artificial diet, egg mortality, larval mortality, growth regulation after 4 days. In kind it is in vivo. How it is done: Eggs (0-24 h old) were placed in 24-well microtiter plate on artificial diet and treated with test solutions at an application rate of 200 ppm by pipetting. After an incubation period of 4 days, samples were checked for egg mortality, larval mortality, and growth regulation. The following compounds gave at least 80% control of Heliothis virescen: • I-3, I-6, I-7, I-26, I-29, I-30, I-47, I-49, I-52, I-53, I-72, I-75, I-417, I-532, I-578, I-785, I-854, I-877, III-49, V-49, XII-49, XIV-26, XIV-49, XV-26, XVI-26, XVII-26, XXIV-2, XXIV-46, XXIV-90, XXIV-93, XXIV-94, XXV-2, XXV-26, XXV-49 and XXV-68.

Data set [4] relates to Myzus persicae (Green Peach Aphid). Nature of the data set: Myzus persicae sunflower leaf disc spray test. Format: in vivo. As to conditions: foliar, 144 h, 200 ppm sprayed on sunflower leaf discs, aphid population of mixed ages, mortality after 6 DAT. How it is done:
Sunflower leaf discs were placed on agar in a 24-well microtiter plate and sprayed with test solutions at an application rate of 200 ppm. After drying, the leaf discs were infested with an aphid population of mixed ages. After an incubation period of 6 DAT, samples were checked for mortality. The following compounds gave at least 80% control of Myzus persicae: • I-3, I-26, I-29, […], I-30, I-49, I-52, I-53, I-72, I-75, III-49, V-49, XXIV-46, XXIV-90 and XXIV-94.

`CN(C(=O)c1ccnc(Cl)c1)c1ccccc1N1CCN(C/C=C/c2ccc(Cl)cc2)CC1` [Example 2, 2-chloro-N-(2-{4-[(E)-3-(4-chloro-phenyl)-allyl]-piperazin-1-yl}-phenyl)-N-methyl-isonicotinamide] yielded a melting point of 117 to 120 °C.

Consider `CN1CCN(c2cc(Cl)ccc2NC(=O)c2ccnc(Cl)c2)CC1` [Example 3, 2-Chloro-N-[4-chloro-2-(4-methyl-piperazin-1-yl)-phenyl]-isonicotinamide], for which the melting point lay within 118 to 120 °C.

`COCCCNC(=O)Nc1ccc(F)cc1N1CCN(C/C=C/c2ccc(Cl)cc2)CC1` [Example 4, 1-(2-{4-[(E)-3-(4-chloro-phenyl)-allyl]-piperazin-1-yl}-4-fluoro-phenyl)-3-(3-methoxy-propyl)-urea]: the melting point is 86 to 90 °C.

In turn, `O=C1N(Cc2cnc(Cl)s2)CCN1c1ccc(F)cc1N1CCN(C/C=C/c2ccc(Cl)cc2)CC1` [Example 5, 1-(2-{4-[(E)-3-(4-Chloro-phenyl)-allyl]-piperazin-1-yl}-4-fluoro-phenyl)-3-(2-chloro-thiazol-5-ylmethyl)-imidazolidin-2-one] gave a melting point of 72 to 77 °C.

`O=C(Nc1cnc(Cl)nc1N1CCN(C/C=C/c2ccc(OC(F)(F)F)cc2)CC1)c1ccnc(Cl)c1` [Example 7, 2-chloro-N-(2-chloro-4-{4-[(E)-3-(4-trifluoromethoxy-phenyl)-allyl]-piperazin-1-yl}-pyrimidin-5-yl)-isonicotinamide] gave a melting point of 210 to 211 °C.

Molecule `Cc1nn(C)c(N2CCN(C/C=C/c3ccc(Cl)cc3)CC2)c1NC(=O)c1ccnc(Cl)c1` [Example 8, 2-Chloro-N-(5-{4-[(E)-3-(4-chloro-phenyl)-allyl]-piperazin-1-yl}-1,3-dimethyl-1H-pyrazol-4-yl)-isonicotinamide] showed a melting point of 85 to 88 °C.

Molecule `O=C(Nc1c(Cl)cc(Cl)cc1N1CCN(C/C=C/c2ccc(Cl)cc2)CC1)c1ccnc(Cl)c1` [Example 10, 2-chloro-N-(2-{4-[(E)-3-(4-chloro-phenyl)-allyl]-piperazin-1-yl}-4,6-dichloro-phenyl)-isonicotinamide] showed a melting point of 79 to 80 °C.

Turning to `O=C(Nc1cc(Cl)cnc1N1CCN(C/C=C/c2ccc(OC(F)(F)F)cc2)CC1)c1ccnc(Cl)c1` [XXIV-94, 2-chloro-N-(5-chloro-2-{4-[(E)-3-(4-trifluoromethoxy-phenyl)-allyl]-piperazin-1-yl}-pyridin-3-yl)-isonicotinamide], in data set [1], the pest or weed control at 2 ppm was ≥ 80%. The pest or weed control at 200 ppm in data set [2], in data set [3] and in data set [4] was ≥ 80% throughout.
